Results published in ChEMBL document CHEMBL4229455, “Synthesis and anticancer activity of novel bisindolylhydroxymaleimide derivatives with potent GSK-3 kinase inhibition” (Bioorg Med Chem, 2018).

Assays:
[1] = biological target: T1, Serine/threonine-protein kinase haspin (Homo sapiens, UniProt Q8TF76); experiment: Inhibition of recombinant human haspin kinase domain expressed in bacteria using histone H3 (1 to 21 residues) peptide as substrate in presence of [gamma-33P]ATP
T1 sequence (Q8TF76 whole entry): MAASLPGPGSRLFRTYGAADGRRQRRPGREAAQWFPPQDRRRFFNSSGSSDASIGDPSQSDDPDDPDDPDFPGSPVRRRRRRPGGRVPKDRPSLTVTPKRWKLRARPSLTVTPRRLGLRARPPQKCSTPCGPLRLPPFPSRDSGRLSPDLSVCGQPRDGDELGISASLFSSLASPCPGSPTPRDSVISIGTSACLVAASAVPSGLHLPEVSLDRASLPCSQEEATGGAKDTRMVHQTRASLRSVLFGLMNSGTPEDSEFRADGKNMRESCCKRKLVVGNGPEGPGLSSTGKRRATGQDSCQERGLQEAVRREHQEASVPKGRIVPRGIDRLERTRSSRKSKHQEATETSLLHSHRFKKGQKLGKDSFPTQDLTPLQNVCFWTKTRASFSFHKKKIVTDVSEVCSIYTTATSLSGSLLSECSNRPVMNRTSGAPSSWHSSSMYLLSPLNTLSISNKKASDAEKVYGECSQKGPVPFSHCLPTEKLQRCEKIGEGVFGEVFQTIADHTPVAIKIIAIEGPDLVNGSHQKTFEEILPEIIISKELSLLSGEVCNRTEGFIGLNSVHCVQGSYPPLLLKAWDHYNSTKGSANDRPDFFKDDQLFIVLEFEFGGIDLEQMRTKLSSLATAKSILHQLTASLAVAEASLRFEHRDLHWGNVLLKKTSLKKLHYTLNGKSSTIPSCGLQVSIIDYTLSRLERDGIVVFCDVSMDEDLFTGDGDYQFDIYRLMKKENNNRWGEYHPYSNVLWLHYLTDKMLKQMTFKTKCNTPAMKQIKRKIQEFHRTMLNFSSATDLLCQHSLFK

[2] = biological target: Cyclin-dependent kinase 5/CDK5 activator 1 (Homo sapiens, UniProt Q00535); experiment: Inhibition of recombinant full length human CDK5/p25 expressed in bacteria using histone H1 as substrate in presence of [gamma-33P]ATP
CDK9/cyclin T1 = CDK9/cyclin T1 (Homo sapiens, UniProt P50750); experiment: Inhibition of recombinant full length human CDK9/cyclin T expressed in baculovirus infected Sf9 insect cells using YSPTSPSYSPTSPSYSPTSPSKKKK as substrate in presence of [gamma-33P]ATP
[3] = biological target: Glycogen synthase kinase-3 (Sus scrofa, UniProt B2LUN4+I6LNT8); experiment: Inhibition of domestic porcine brain full length GSK-3alpha/beta using GS-1 as substrate in presence of [gamma-33P]ATP; parameters: species or system Sus scrofa domesticus
[4] = biological target: T2, Serine/threonine-protein kinase haspin (Homo sapiens) (UniProt Q8TF76); experiment: Inhibition of recombinant human haspin kinase domain expressed in bacteria assessed as residual activity at 10 uM using histone H3 (1 to 21 residues) peptide as substrate in presence of [gamma-33P]ATP
T2 sequence (whole entry): T1 sequence (Q8TF76 whole entry)

[5] = biological target: CDK2/Cyclin A2 (Homo sapiens) (UniProt P24941+P20248); experiment: Inhibition of full length human CDK2/cyclin A assessed as residual activity at 10 uM using histone H1 as substrate in presence of [gamma-33P]ATP; type: protein-complex assay
[6] = biological target: Serine/threonine-protein kinase pim-1 (Homo sapiens, UniProt P11309); experiment: Inhibition of recombinant full length human PIM1 expressed in bacteria assessed as residual activity at 10 uM using histone H1 as substrate in presence of [gamma-33P]ATP
NCI-H23 = experiment: Cytotoxicity against human NCI-H23 cells assessed as cell growth at 10 uM after 48 hrs by SRB assay relative to control; type: functional; settings: NCI-H23, 48 h, read-out: Activity
HCT-15 = experiment: Cytotoxicity against human HCT15 cells assessed as cell growth at 10 uM after 48 hrs by SRB assay relative to control; type: functional; settings: HCT-15, 48 h, read-out: Activity
KM12 = experiment: Cytotoxicity against human KM12 cells assessed as cell growth at 10 uM after 48 hrs by SRB assay relative to control; type: functional; settings: KM12, 48 h, read-out: Activity
SNB-75 = experiment: Cytotoxicity against human SNB75 cells assessed as cell growth at 10 uM after 48 hrs by SRB assay relative to control; type: functional; settings: SNB-75, 48 h, read-out: Activity
Malme-3M = experiment: Cytotoxicity against human MALME-3M cells assessed as cell growth at 10 uM after 48 hrs by SRB assay relative to control; type: functional; settings: read-out: Activity
SK-MEL-2 = experiment: Cytotoxicity against human SK-MEL-2 cells assessed as cell growth at 10 uM after 48 hrs by SRB assay relative to control; type: functional; settings: SK-MEL-2, 48 h, read-out: Activity
SK-MEL-5 = experiment: Cytotoxicity against human SK-MEL-5 cells assessed as cell growth at 10 uM after 48 hrs by SRB assay relative to control; type: functional; settings: SK-MEL-5, 48 h, read-out: Activity
UACC-62 = experiment: Cytotoxicity against human UACC62 cells assessed as cell growth at 10 uM after 48 hrs by SRB assay relative to control; type: functional; settings: UACC-62, 48 h, read-out: Activity
OVCAR-3 = experiment: Cytotoxicity against human OVCAR3 cells assessed as cell growth at 10 uM after 48 hrs by SRB assay relative to control; type: functional; settings: OVCAR-3, 48 h, read-out: Activity
OVCAR-8 = experiment: Cytotoxicity against human OVCAR8 cells assessed as cell growth at 10 uM after 48 hrs by SRB assay relative to control; type: functional; settings: OVCAR-8, 48 h, read-out: Activity
NCI/ADR-RES = experiment: Cytotoxicity against human NCI-ADR-RES cells assessed as cell growth at 10 uM after 48 hrs by SRB assay relative to control; type: functional; settings: read-out: Activity
ACHN = experiment: Cytotoxicity against human ACHN cells assessed as cell growth at 10 uM after 48 hrs by SRB assay relative to control; type: functional; settings: read-out: Activity
RXF 393 = experiment: Cytotoxicity against human RXF393 cells assessed as cell growth at 10 uM after 48 hrs by SRB assay relative to control; type: functional; settings: RXF 393, 48 h, read-out: Activity
UO-31 = experiment: Cytotoxicity against human UO31 cells assessed as cell growth at 10 uM after 48 hrs by SRB assay relative to control; type: functional; settings: UO-31, 48 h, read-out: Activity
PC-3 = experiment: Cytotoxicity against human PC3 cells assessed as cell growth at 10 uM after 48 hrs by SRB assay relative to control; type: functional; settings: PC-3, 48 h, read-out: Activity
MCF7 = experiment: Cytotoxicity against human MCF7 cells assessed as cell growth at 10 uM after 48 hrs by SRB assay relative to control; type: functional; settings: MCF7, 48 h, read-out: Activity
Hs-578T = experiment: Cytotoxicity against human Hs 578T cells assessed as cell growth at 10 uM after 48 hrs by SRB assay relative to control; type: functional; settings: read-out: Activity
BT-549 = experiment: Cytotoxicity against human BT549 cells assessed as cell growth at 10 uM after 48 hrs by SRB assay relative to control; type: functional; settings: BT-549, 48 h, read-out: Activity

CDK9/cyclin T1, sequence (O60563 whole entry): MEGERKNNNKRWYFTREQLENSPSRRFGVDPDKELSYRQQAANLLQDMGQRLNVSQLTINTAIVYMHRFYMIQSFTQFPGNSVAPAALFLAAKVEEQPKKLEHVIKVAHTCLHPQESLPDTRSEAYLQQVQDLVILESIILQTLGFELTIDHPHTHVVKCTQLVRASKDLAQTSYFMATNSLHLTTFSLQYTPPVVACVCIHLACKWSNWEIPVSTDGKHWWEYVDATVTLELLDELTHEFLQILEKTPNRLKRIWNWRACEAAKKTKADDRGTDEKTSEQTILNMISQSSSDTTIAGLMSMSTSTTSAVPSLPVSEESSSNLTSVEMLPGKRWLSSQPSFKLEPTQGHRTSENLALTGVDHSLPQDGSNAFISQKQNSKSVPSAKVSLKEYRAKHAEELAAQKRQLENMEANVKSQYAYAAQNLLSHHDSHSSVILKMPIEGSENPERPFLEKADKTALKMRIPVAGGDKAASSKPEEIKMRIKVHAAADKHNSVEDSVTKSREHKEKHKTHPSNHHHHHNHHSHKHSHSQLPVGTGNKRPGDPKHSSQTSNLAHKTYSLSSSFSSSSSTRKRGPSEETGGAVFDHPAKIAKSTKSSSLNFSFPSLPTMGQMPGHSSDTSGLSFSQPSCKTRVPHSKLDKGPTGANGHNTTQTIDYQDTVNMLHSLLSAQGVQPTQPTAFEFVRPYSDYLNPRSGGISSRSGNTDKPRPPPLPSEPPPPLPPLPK
CDK9/cyclin T1, sequence (P50750 whole entry): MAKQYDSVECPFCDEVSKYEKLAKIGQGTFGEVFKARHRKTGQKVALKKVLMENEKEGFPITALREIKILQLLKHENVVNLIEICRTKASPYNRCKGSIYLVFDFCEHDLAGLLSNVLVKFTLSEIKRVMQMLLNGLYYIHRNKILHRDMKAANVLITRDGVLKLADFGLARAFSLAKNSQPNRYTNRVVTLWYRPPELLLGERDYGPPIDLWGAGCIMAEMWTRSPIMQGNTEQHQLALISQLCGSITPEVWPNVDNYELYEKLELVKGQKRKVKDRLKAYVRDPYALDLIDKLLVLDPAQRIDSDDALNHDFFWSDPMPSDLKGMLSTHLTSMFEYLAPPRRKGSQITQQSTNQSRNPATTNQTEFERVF
Serine/threonine-protein kinase pim-1, sequence (P11309 whole entry, looked up): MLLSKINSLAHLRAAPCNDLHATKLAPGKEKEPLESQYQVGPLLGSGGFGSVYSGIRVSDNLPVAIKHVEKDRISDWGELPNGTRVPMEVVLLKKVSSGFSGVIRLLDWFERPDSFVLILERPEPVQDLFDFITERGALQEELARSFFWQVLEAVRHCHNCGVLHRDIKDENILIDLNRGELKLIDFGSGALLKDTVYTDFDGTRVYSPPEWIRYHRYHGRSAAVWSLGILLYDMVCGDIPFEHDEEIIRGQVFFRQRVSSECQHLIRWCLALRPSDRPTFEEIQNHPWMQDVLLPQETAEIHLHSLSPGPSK
Cyclin-dependent kinase 5/CDK5 activator 1, sequence (Q00535 whole entry): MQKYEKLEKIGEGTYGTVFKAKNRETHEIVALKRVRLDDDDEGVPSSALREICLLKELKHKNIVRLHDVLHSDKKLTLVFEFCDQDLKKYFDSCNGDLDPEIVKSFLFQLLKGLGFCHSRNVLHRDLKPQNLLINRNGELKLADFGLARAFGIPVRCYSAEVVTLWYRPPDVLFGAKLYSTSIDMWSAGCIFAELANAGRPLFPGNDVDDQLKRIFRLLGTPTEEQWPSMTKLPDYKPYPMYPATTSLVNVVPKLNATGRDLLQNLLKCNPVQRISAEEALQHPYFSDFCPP
Cyclin-dependent kinase 5/CDK5 activator 1, sequence (Q15078 whole entry, further chain): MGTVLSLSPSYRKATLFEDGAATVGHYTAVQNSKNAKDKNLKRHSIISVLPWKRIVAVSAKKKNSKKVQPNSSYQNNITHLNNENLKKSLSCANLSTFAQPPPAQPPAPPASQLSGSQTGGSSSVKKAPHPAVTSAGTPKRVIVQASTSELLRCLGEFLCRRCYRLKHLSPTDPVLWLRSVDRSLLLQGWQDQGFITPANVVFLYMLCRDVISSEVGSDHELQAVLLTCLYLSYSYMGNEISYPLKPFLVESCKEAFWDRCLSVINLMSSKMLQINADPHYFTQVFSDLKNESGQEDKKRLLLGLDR

Work on `O=C1C2=C(C(=O)N1O)c1cn(c3ccccc13)CCCCCCn1cc2c2ccccc21` yielded an IC50 [1] greater than 10 µM, an IC50 [2] greater than 10 µM and an IC50 (CDK9/cyclin T1) greater than 10 µM. For the same compound, the IC50 [3] was greater than 10 µM, the Activity [4] was 134% and the Activity [5] was 89%. The Activity [6] was 68%, the growth at 10 µM (NCI-H23) was 99.7% and the growth at 10 µM (HCT-15) was 108%. For the same compound, the growth at 10 µM (KM12) was 107%, the growth at 10 µM (SNB-75) was 91.4% and the growth at 10 µM (Malme-3M) was 105%. The growth at 10 µM (SK-MEL-2) was 120%, the growth at 10 µM (SK-MEL-5) was 99.6% and the growth at 10 µM (UACC-62) was 100%. The growth at 10 µM (OVCAR-3) was 106%, the growth at 10 µM (OVCAR-8) was 110% and the growth at 10 µM (NCI/ADR-RES) was 108%. It also gave a growth at 10 µM (ACHN) of 109%, a growth at 10 µM (RXF 393) of 119% and a growth at 10 µM (UO-31) of 80.3%. The growth at 10 µM (PC-3) was 95.8%, the growth at 10 µM (MCF7) was 99.6% and the growth at 10 µM (Hs-578T) was 97.2%. The growth at 10 µM (BT-549) was 97.6%.
